Literature values, collected in patent publication US20110236503A1, “Topical Skincare Composition” (COSMALABS INTERNATIONAL, LLC, priority 2010, published 2011).

Details: topical composition having 5% benzoyl peroxide vs erythromycin and clindamycin formulations

## O=C(OOC(=O)c1ccccc1)c1ccccc1 [benzoyl peroxide, Benzoyl peroxide]
  effectiveness for acne compared with other topical antimicrobials: at least as effective for acne as erythromycin and clindamycin formulations
